# Test results taken from patent US11261201B2 (priority 2018, dated 2022).
# Counter-ions that a name gives are not always drawn. Like-named read-outs stand apart in the source and are kept apart here.
# Experiments:
# H37RvMA = experiment: Tuberculosis Alamar Blue/Resazurin assay (MIC); type: cell-based; conditions: Mycobacterium tuberculosis, H37RV, read-out: WT H37Rv MTB Activity
# E. coli = experiment: Gram negative MIC protocol (OD600, LB, 24 h); conditions: Escherichia coli
# Method: (§1) Overnight bacterial cultures were grown in LB with no added antibiotics at 37° C. with shaking. A 1:1000 dilution of these cultures into LB was exposed to concentration gradients of compounds in 96-well plates (100 μL per well assay volume). Resulting plates were incubated at 37° C. for 24 h without shaking, and OD600 was measured at the end of the incubation. MICs were determined as the lowest concentrations at which OD600 remained at baseline.
# A. baumannii = experiment: Gram negative MIC protocol (OD600, LB, 24 h); conditions: Acinetobacter baumannii
# Method: as §1
# [1] = read-out: MIC E. coli delta-TolC LB Media, E. coli delta-TolC strain, LB media, 24 h, OD600
# [2] = read-out: MIC WT E. coli LB Media, wild-type E. coli, LB media, 24 h, OD600
# [3] = read-out: MIC A. baumannii LB Media, A. baumannii, LB media, 24 h, OD600
# [4] = read-out: MIC E. coli delta-TolC LB Media, E. coli delta-TolC, LB media, OD600
# [5] = read-out: MIC WT E. coli LB Media, WT E. coli, LB media, OD600
# [6] = read-out: MIC A. baumannii LB Media
Compound,MIC (H37RvMA; WT H37Rv MTB),MIC (E. coli; [1]),MIC (E. coli; [2]),MIC (A. baumannii; [3]),MIC (E. coli; [4]),MIC (E. coli; [5]),MIC (H37RvMA),MIC (A. baumannii; [6])
CCN1CC(COc2ccccc2CNC(C)CC2CCCCC2)OC1=O (stereo not drawn) [B369],> 150 µM,3 µM,> 150 µM,> 150 µM,–,–,–,–
O=C1OC(COc2ccccc2CNCCC2=CCCCC2)CN1C1CC1 (stereo not drawn) [B370],> 150 µM,12 µM,> 150 µM,> 150 µM,–,–,–,–
CN1CC(COc2ccccc2CNCCC2=CCCCC2)OC1=O (stereo not drawn) [B371],> 150 µM,33 µM,> 150 µM,> 150 µM,–,–,–,–
CC(CC1CCCCC1)NCc1ccccc1OCC1CN(C)C(=O)O1 (stereo not drawn) [B372],> 150 µM,5 µM,150 µM,> 150 µM,–,–,–,–
NC(=O)Nc1ccccc1CNCCC1CCCCC1 [B373],> 150 µM,150 µM,> 150 µM,> 150 µM,–,–,–,–
c1cc(CNCCC2CCCCC2)c2c(c1)OCO2 [B374],150 µM,> 150 µM,> 150 µM,> 150 µM,–,–,–,–
OCc1cccc(CNCCC2CCCCC2)c1 [B375],> 150 µM,> 150 µM,> 150 µM,> 150 µM,–,–,–,–
"OB(O)Cc1ccccc1CNCCC1CCCCC1 [B376, 2-((2-cyclohexylethylamino)methyl)benzylboronic acid]",> 150 µM,91 µM,150 µM,> 150 µM,–,–,–,–
CC(CC1CCCCC1)NCc1ccccc1OCC1CNC(=O)O1 (stereo not drawn) [B377],> 150 µM,2.3 µM,75 µM,150 µM,–,–,–,–
"CC(CC1CCCCC1)NCc1ccccc1CCCO (stereo not drawn) [B378, 3-(2-((1-cyclohexylpropan-2-ylamino)methyl)phenyl)propan-1-ol]",150 µM,7 µM,91 µM,150 µM,–,–,–,–
NS(=O)(=O)Cc1ccccc1CNCCC1CCCCC1 [B380],> 150 µM,12 µM,33 µM,> 150 µM,–,–,–,–
CC(CC1CCCCC1)NCc1ccccc1OCc1ccccc1Br (stereo not drawn) [B381],20.2 µM,4 µM,55 µM,55 µM,–,–,–,–
CC(CC1CCCCC1)NCc1ccccc1OCc1ccccc1Cl (stereo not drawn) [B382],12.2 µM,3 µM,55 µM,55 µM,–,–,–,–
CC(CC1CCCCC1)NCc1ccccc1OCc1cccc(F)c1 (stereo not drawn) [B383],12.2 µM,2 µM,55 µM,91 µM,–,–,–,–
Cc1ccccc1COc1ccccc1CNC(C)CC1CCCCC1 (stereo not drawn) [B384],20.2 µM,4 µM,91 µM,55 µM,–,–,–,–
"CC(CC1CCCCC1)NCc1ccccc1OC1CCC1 (stereo not drawn) [B385, N-(2-cyclobutoxybenzyl)-1-cyclohexylpropan-2-amine]",90.9 µM,2 µM,91 µM,150 µM,–,–,–,–
"CC(CC1CCCCC1)NCc1ccccc1OCC1CC2CCC1C2 (stereo not drawn) [B386, N-(2-(bicyclo[2.2.1]heptan-2-ylmethoxy)benzyl)-1-cyclohexylpropan-2-amine]",20.2 µM,5 µM,> 150 µM,55 µM,–,–,–,–
"CC(CC1CCCCC1)NCc1ccccc1OC1CCCCC1 (stereo not drawn) [B387, 1-cyclohexyl-N-(2-(cyclohexyloxy)benzyl)propan-2-amine]",33.4 µM,3 µM,91 µM,55 µM,–,–,–,–
"CC(CC1CCCCC1)NCc1ccccc1OCc1ccccc1I (stereo not drawn) [B388, 1-cyclohexyl-N-(2-((2-iodobenzyl)oxy)benzyl)propan-2-amine]",33.4 µM,7 µM,150 µM,33 µM,–,–,–,–
"CC(CC1CCCCC1)NCc1ccccc1OC1CCCCC1C (stereo not drawn) [B389, 1-cyclohexyl-N-(2-((2-methylcyclohexyl)oxy)benzyl)propan-2-amine]",33.4 µM,3 µM,> 150 µM,91 µM,–,–,–,–
"CC(CC1CCCCC1)NCc1ccccc1OC1CC2CCC1C2 (stereo not drawn) [B390, N-(2-(bicyclo[2.2.1]heptan-2-yloxy)benzyl)-1-cyclohexylpropan-2-amine]",20.2 µM,3 µM,150 µM,55 µM,–,–,–,–

Compound,MIC (H37RvMA; WT H37Rv MTB),MIC (E. coli; [1]),MIC (E. coli; [2]),MIC (A. baumannii; [3]),MIC (E. coli; [4]),MIC (E. coli; [5]),MIC (H37RvMA),MIC (A. baumannii; [6])
"CC1CCCC(Oc2ccccc2CNC(C)CC2CCCCC2)C1 (stereo not drawn) [B391, 1-cyclohexyl-N-(2-((3-methylcyclohexyl)oxy)benzyl)propan-2-amine]",20.2 µM,3 µM,150 µM,91 µM,–,–,–,–
"CCC1CCCCC1Oc1ccccc1CNC(C)CC1CCCCC1 (stereo not drawn) [B392, 1-cyclohexyl-N-(2-((2-ethylcyclohexyl)oxy)benzyl)propan-2-amine]",33.4 µM,7 µM,> 150 µM,150 µM,–,–,–,–
"CC(CC1CCCCC1)NCc1ccccc1OC1CC2CC1C1CCCC21 (stereo not drawn) [B393, 1-cyclohexyl-N-(2-((octahydro-1H-4,7-methanoinden-5-yl)oxy)benzyl)propan-2-amine]",20.2 µM,7 µM,> 150 µM,150 µM,–,–,–,–
"CC1CCC(Oc2ccccc2CNC(C)CC2CCCCC2)CC1 (stereo not drawn) [B394, 1-cyclohexyl-N-(2-((4-methylcyclohexyl)oxy)benzyl)propan-2-amine]",20.2 µM,3 µM,150 µM,55 µM,–,–,–,–
"CC(CC1CCCCC1)NCc1ccccc1OC1CC2CCC1CC2 (stereo not drawn) [B395, N-(2-(bicyclo[2.2.2]octan-2-yloxy)benzyl)-1-cyclohexylpropan-2-amine]",20.2 µM,3 µM,> 150 µM,33 µM,–,–,–,–
"CC(CC1CCCCC1)NCc1ccccc1OC1CCC(F)(F)CC1 (stereo not drawn) [B396, 1-cyclohexyl-N-(2-((4,4-difluorocyclohexyl)oxy)benzyl)propan-2-amine]",55.1 µM,3 µM,150 µM,150 µM,–,–,–,–
"CC(CC1CCCCC1)NCc1ccccc1NCc1ccccc1F (stereo not drawn) [B397, 2-(((1-cyclohexylpropan-2-yl)amino)methyl)-N-(2-fluorobenzyl)aniline dihydrochloride]",12.2 µM,5 µM,> 150 µM,> 150 µM,–,–,–,–
"CC(CC1CCCCC1)NCc1ccccc1NC(=O)c1ccccc1F (stereo not drawn) [B398, N-(2-(((1-cyclohexylpropan-2-yl)amino)methyl)phenyl)-2-fluorobenzamide hydrochloride]",150 µM,–,–,> 150 µM,91 µM,> 150 µM,–,–
"CC(CC1CCCCC1)NCc1ccccc1CCC(N)=O (stereo not drawn) [B399, 3-(2-((1-cyclohexylpropan-2-ylamino)methyl)phenyl)propanamide trifluoroacetate]",–,–,–,–,20 µM,150 µM,> 150 µM,> 150 µM
"COC(=O)CCc1ccccc1CNC(C)CC1CCCCC1 (stereo not drawn) [B400, methyl 3-(2-((1-cyclohexylpropan-2-ylamino)methyl)phenyl)propanoate hydrochloride]",> 150 µM,–,–,> 150 µM,55 µM,> 150 µM,–,–
"CC(CC1CCCCC1)NCc1ccccc1CCC(=O)O (stereo not drawn) [B401, 3-(2-((1-cyclohexylpropan-2-ylamino)methyl)phenyl)propanoic acid trifluoroacetate]",–,–,–,–,33 µM,> 150 µM,> 150 µM,> 150 µM
O=C1NCC(COc2ccccc2CNCCC2=CCCCC2)O1 (stereo not drawn) [B402],> 150 µM,–,–,> 150 µM,33 µM,150 µM,–,–
CC(CC1CCCCC1)NCc1ccccc1OCC1CNC(=O)C1 (stereo not drawn) [B403],> 150 µM,–,–,> 150 µM,7 µM,> 150 µM,–,–
"CC(CC1CCCCC1)NCc1ccccc1OC1C2CC3CC(C2)CC1C3 [B404, N-(2-(((1R,3S,5r,7r)-adamantan-2-yl)oxy)benzyl)-1-cyclohexylpropan-2-amine]",20.2 µM,–,–,150 µM,7 µM,> 150 µM,–,–
"CC(CC1CCCCC1)NCc1ccccc1Oc1ccccc1F (stereo not drawn) [B405, 1-cyclohexyl-N-(2-(2-fluorophenoxy)benzyl)propan-2-amine]",33.4 µM,–,–,150 µM,5 µM,91 µM,–,–
"CNc1cccc(CNCCC2CCCCC2)c1 [B406, 3-(((2-cyclohexylethyl)amino)methyl)-N-methylaniline]",150 µM,–,–,> 150 µM,> 150 µM,> 150 µM,–,–
"CC(CC1CCCCC1)NCc1ccccc1SCC1CN(C)C(=O)O1 (stereo not drawn) [B407, 5-(((2-(((1-cyclohexylpropan-2-yl)amino)methyl)phenyl)thio)methyl)-3-methyl oxazolidin-2-one]",> 150 µM,–,–,> 150 µM,7 µM,150 µM,–,–
"CC(CC1CCCCC1)NCc1ccccc1OCc1ccc(F)cc1 (stereo not drawn) [B408, 1-cyclohexyl-N-(2-((4-fluorobenzyl)oxy)benzyl)propan-2-amine]",12.2 µM,–,–,55 µM,2 µM,55 µM,–,–
"CC(CC1CCCCC1)NCc1ccccc1OCc1ccccc1 (stereo not drawn) [B409, N-(2-(benzyloxy)benzyl)-1-cyclohexylpropan-2-amine]",12.2 µM,–,–,55 µM,3 µM,55 µM,–,–
"O=C1Cc2ccccc2CN1CCC1CCSCC1 [B410, 2-(2-(tetrahydro-2H-thiopyran-4-yl)ethyl)-1,4-dihydroisoquinolin-3(2H)-one]",> 150 µM,–,–,> 150 µM,> 150 µM,> 150 µM,–,–
"O=C1Cc2ccccc2CN1CCC1=CCCCC1 [B411, 2-(2-(cyclohex-1-en-1-yl)ethyl)-1,4-dihydroisoquinolin-3(2H)-one]",7.4 µM,–,–,> 150 µM,150 µM,> 150 µM,–,–
